The term IC50 denotes the concentration that gives 50% inhibition. A high value points to weaker potency in that assay. What is called GI50 is the concentration giving 50% growth inhibition. A higher GI50 goes with lower sensitivity of the cells.

In one series the test system is SK-MEL-28. Description: SRB antiproliferative assay. Type of series: cell-based. The conditions noted are these: Homo sapiens, SK-MEL-28 (Melanoma), 5% FCS/5 day incubation. The text has this:
(§1) The cells were passaged using Trypsin (Gibco).

The subject of another series is DU-145. Description: SRB antiproliferative assay. The series is classed as cell-based. The settings on record: Homo sapiens, DU-145 (Prostate), 5% FCS/5 day incubation.
Excerpt: as §1

A further series deals with HUVEC. Description: SRB antiproliferative assay. The series is classed as cell-based. The settings on record: HUVEC (Normal human), 5% FCS/5 day incubation.
Excerpt: as §1
In general terms: Sulforhodamine B stains cellular protein and so reports cell mass.

For a further series, the system named is SK-OV-3. Description: SRB antiproliferative assay. The series is classed as cell-based. The settings on record: Homo sapiens, SK-OV-3 (Ovary), 5% FCS/5 day incubation.
Excerpt: as §1

In another series the test system is HTB174. The experiment in a line: SRB antiproliferative assay. The conditions noted are these: Homo sapiens, HTB174 (Lung), 5% FCS/5 day incubation. Type of series: cell-based.
Excerpt: as §1

In another series the test system is HCT-15. Description: SRB antiproliferative assay. Type of series: cell-based. The conditions noted are these: Homo sapiens, HCT-15 (Colon), 5% FCS/5 day incubation.
Excerpt: as §1

In another series the test system is GM. Description: SRB antiproliferative assay. The series is classed as cell-based. The settings on record: GM (Normal human), 5% FCS/5 day incubation.
Excerpt: as §1

The next series deals with ACHN. The experiment in a line: SRB antiproliferative assay. The settings on record: Homo sapiens, ACHN (Renal), 5% FCS/5 day incubation. The series is classed as cell-based.
Excerpt: as §1

The subject of a further series is 3T3. The experiment in a line: SRB antiproliferative assay. The series is classed as cell-based. The conditions noted are these: NIH3T3, 3T3 (Normal mouse), 5% FCS/5 day incubation.
Excerpt: as §1

The subject of the next series is CaSki. Description: SRB antiproliferative assay. The settings on record: Homo sapiens, Ca-Ski, CaSki (Cervical), 5% FCS/5 day incubation. The series is classed as cell-based.
Excerpt: as §1

For another series, the system named is L929. Description: SRB antiproliferative assay. Type of series: cell-based. The settings on record: L929 (Normal mouse), 5% FCS/5 day incubation.
Excerpt: as §1

Series [1] concerns PC-3 human prostate carcinoma. The experiment in a line: Mouse xenograft tumor growth. The series is classed as in vivo.
Series [2] relates to cyclin D1 and E expression. The experiment in a line: Cyclin expression and cell cycle in vitro. The series is classed as cell-based.
Series [3] concerns human melanoma MM-RU cells. The experiment in a line: Lung metastases in MM-RU tumor-bearing mice. Type of series: in vivo, nude mice.
For series [4], the system named is PC-3 Human Prostate Tumor cells. The experiment in a line: XTT growth inhibition assay. Type of series: cell-based. The conditions noted are these: PC-3 cells.
Series [5] can be described thus: Preliminary toxicity studies in mice and rats. Type of series: in vivo.
A further series has as its system HCC-2998. Description: In-Vitro Testing SRB panel: Colon Cancer. The series is classed as cell-based. From the text:
The dose-response curve page of the data package is created by plotting the PGs against the log10 of the corresponding concentration for every cell line. The cell line curves are grouped by subpanel. Horizontal lines are provided at the PG values of […]. The concentrations corresponding to points where the curves cross these lines are the GI50, TGI, and LC50, respectively.

Setting [6] is: MM-RU tumor-bearing mice, 80 mg/kg/d × 5/w × 3 s.c.
The mark [7] stands for this setting: MM-RU tumor-bearing mice, 100 mg/kg/d × 28, p.o.
Where [8] appears, read: administered intraperitoneally, orally or subcutaneously.

For the compound `O=C(c1ccc([N+](=O)[O-])cc1)N1Cc2ccccc2C(c2ccccc2Cl)c2ccccc21` (stereo not shown) [Compound 28, N-(4′-Nitrobenzoyl)-11-(2′-chlorophenyl)-5,6-dihydro-11H-dibenz[b,e]azepine], the IC50 in the series on SK-MEL-28 is 400 nM; in the series on DU-145, 900 nM; in the series with HUVEC, 700 nM; with SK-OV-3, above 1000 nM; in the series with HTB174, 100 nM; in the series with HCT-15 it was 400 nM. The IC50 with GM was 900 nM; with ACHN it was 700 nM; in the series with 3T3, above 1000 nM; in the series on CaSki, 500 nM; in the series on L929 it was 600 nM. Besides, the apparent toxicity result in series [1] (PC-3 mouse xenograph) is “no sign of apparent toxicity”. For the same compound, in [1] (mouse xenograph), the “growth of PC-3 human prostate carcinoma” value is recorded as “significant inhibitory effects on the growth”. Moreover, in series [2], the cell cycle arrest result is “induction of G0-G1 cell cycle arrest”. In series [2], the “cyclin D1 and E expression” value was “inhibit cyclin D1 and E expression”. Further, the “Body Wt. Change” value in [3] (setting [6]) was 107%; in series [3] (setting [7]), 105%. Also, the “Liver Wt.” value in series [3] (setting [6]) turned out to be 0.97 ± 0.12 gram; in series [3] (setting [7]), 1.00 ± 0.09 gram. The “Lung Metastases” value in series [3] (setting [6]) is 46 ± 12; in series [3] (setting [7]), 45 ± 10; in series [3] (nude mice, MM-RU cells, oral administration or subcutaneous injection), “lung metastases were significantly reduced”. Moreover, the “PC-3 prostate cancer cell growth (XTT)” value in series [4] was “inhibits PC-3 prostate cancer cell growth”. Further, the body weight losses entry in series [5] (setting [8]) was “did not cause significant body weight losses”. Also, the “gross observations of brain, heart, lungs, liver, spleen, kidney and gastrointestinal tract” value in series [5] (setting [8]) was “no abnormalities were detected”. For the same compound, the systemic toxicity result in [5] (mice and rats) was “no obvious systemic toxicity”.
`COc1cccc2c1C(c1ccccc1Cl)c1cc(Cl)ccc1N(C(=O)c1ccc([N+](=O)[O-])cc1)C2` (stereo not shown) [Compound 31]: the TGI with HCC-2998 (HCC-2998) is recorded as above 1.00E−04 Molar. Also, the “Percent Growth” value in the series on HCC-2998 (HCC-2998, log10 conc -4 Molar) is reported as 33%; in the series on HCC-2998 (HCC-2998, log10 conc -5 Molar), 45%; with HCC-2998 (HCC-2998, log10 conc -6 Molar), 59%; in the series with HCC-2998 (HCC-2998, log10 conc -7 Molar) it was 93%; in the series with HCC-2998 (HCC-2998, log10 conc -8 Molar), 104%. The same compound returned a GI50 in the series on HCC-2998 (Homo sapiens, HCC 2998) of 4340 nM. The CC50 in the series on HCC-2998 (Homo sapiens, HCC-2998, read-out: LC50 (the source's name)) was above 100000 nM.

(Values after patent US6992079B2, “Substituted 11-phenyl-dibenzazepine compounds useful for the treatment or prevention of diseases characterized by abnormal cell proliferation” (President Fellows of Harvard College, priority 1997, dated 2006).)
